Results on ten compounds are retold here after patent US20110171192A1, “SUBSTITUTED AMINE DERIVATIVE AND MEDICINAL COMPOSITION COMPRISING SAME AS THE ACTIVE INGREDIENT” (priority 2008, published 2011).

Some results are limits rather than exact numbers.

Data set [1] in a line: Stability of nucleic acid transporter inhibitor in solution (acetate buffer pH 3, HPLC). Format: physicochemical. To be noted: for residual ratio of the compound (%): acetate buffer pH 3, 10^−5 M, 25 °C, 20 hours after. Here is the method: Stability of Nucleic Acid Transporter Inhibitor in Solution
0.02 mL of comparative compound or compound (1) methanol solution at the concentration of 10^−3 M was added to the 1.98 mL of acetate buffer, pH 3 (final concentration of 10^−5 M). The solutions were incubated at 25 °C, and the reaction solutions were collected at 2, 4 and 20 hours later. Each obtained 0.5 mL of reaction solutions were neutralized and adjusted to 1 mL, and 0.01 mL of 10^−3 M methanol solutions of 4-hydroxy were spiked as internal standard substrate. The solutions were measured by HPLC according to the measurement condition shown as follows, and the ratio (IS ratio) compared the amount of internal standard substrate with the amount of compounds was calculated. The remaining rate of test compounds were obtained to compare the IS ratio with IS ratio of pre-incubation according to the method described above.
HPLC Analytical Condition • column: Inertsil ODS-2 (φ4.6×150 mm) • Mobile phase: 20 mM phosphate buffer (pH 6)/CH3CN=7/3 (w/w) • Detection absorbance: 250 nm • Flow rate: 1 mL/min • Injection volume: 0.02 mL • Time span of measurement: 20 min

The next data set relates to absorption of adenosine. Kind of data set: Inhibition of absorption of orally given [3H]-adenosine in rats (serum radioactivity). Format: in vivo. The conditions noted are these: male SD rats, oral; for ED50: Rattus norvegicus, 50% inhibitory dose on absorption of adenosine, from regression line; for ED50 value (in words): inhibition on absorption of adenosine. The procedure: Four weeks old male SD rats (Charles river japan corporation) were purchased and the animals over 1 weeks quarantine were used. Body weight of the rats fasted 24 hours from last day were measured and grouped used grouping soft (Stat light #11, Yukums corporation). Test compound and [^3H]-adenosine solution (4 μCi/mL) were given orally at the volume of 2 mL/kg, and about 500 μL of blood were obtained from retro orbital vein. The blood was centrifuged at 3000 rpm for 10 min, and 13 μL of H2O2 solution were added to the 100 μL of resulted serum and placed for 10 min. And 5 mL of liquid scintilation cocktail added and mixed enough, and radio activity was measured using liquid scintillation counter. Inhibitory rate was calculated according to the formula described as follow, and the regression line was obtained from inhibitory rate and its log dose. The 50% inhibitory dose of the compound (ED50) at the inhibition on absorption of adenosine was calculated used regression line formula The results were shown in Table 2.
Inhibitory ratio={1−radio activity of the serum obtained from rats treated with test compound (dpm)/radio activity of the serum obtained from rats treated with vehicle (dpm)}×100

Another data set addresses T1, human CNT2 (Homo sapiens, UniProt O43868).
T1 construct: expressed in transfected cells
T1 sequence (O43868 1-658): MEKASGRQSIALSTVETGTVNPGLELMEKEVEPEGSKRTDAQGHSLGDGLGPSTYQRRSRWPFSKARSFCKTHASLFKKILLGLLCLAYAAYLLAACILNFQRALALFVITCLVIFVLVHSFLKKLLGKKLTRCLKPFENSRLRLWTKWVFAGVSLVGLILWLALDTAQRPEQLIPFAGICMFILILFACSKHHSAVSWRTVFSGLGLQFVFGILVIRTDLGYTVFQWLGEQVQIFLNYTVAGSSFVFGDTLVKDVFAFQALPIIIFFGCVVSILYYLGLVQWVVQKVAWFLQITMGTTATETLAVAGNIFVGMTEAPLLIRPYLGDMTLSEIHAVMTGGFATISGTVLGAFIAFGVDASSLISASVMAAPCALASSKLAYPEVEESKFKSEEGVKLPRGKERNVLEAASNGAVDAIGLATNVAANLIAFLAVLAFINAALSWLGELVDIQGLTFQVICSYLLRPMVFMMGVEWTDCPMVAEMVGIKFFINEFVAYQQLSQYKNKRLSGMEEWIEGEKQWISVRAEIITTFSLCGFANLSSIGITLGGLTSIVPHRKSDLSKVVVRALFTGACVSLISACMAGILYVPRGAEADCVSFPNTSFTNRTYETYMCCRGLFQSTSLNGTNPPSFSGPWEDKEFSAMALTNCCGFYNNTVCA
Kind of data set: Inhibitory activity against uptake of adenosine through human CNT2. Format: cell-based. To be noted: human CNT2 transiently expressing cells, 14C-adenosine 10 μM, 30 minutes at 37° C., NBMPR 10 μM. The procedure: Measurement of Inhibitory Activity Against Uptake of Adenosine Through Human CNT2
An Uptake buffer was prepared by addition of a mixture of non-radioisotope labeled (Sigma) and ^14C-labeled (GE Healthcare) adenosine at the final concentration of 10 μM into a buffer, pH 7.4, containing 140 mM sodium chloride, 2 mM potassium chloride, 1 mM calcium chloride, 1 mM magnesium chloride, 10 mM HEPES
2-[4-(2-hydroxyethyl)-1-piperazinyl]thane sulfonic acid, 5 mM tris(hydroxymethyl)aminomethane and 5 mM glucose. For measurement of basal uptake, Basal uptake measurement buffer, which contained 140 mM choline chloride instead of sodium chloride was prepared. In uptake assays, NBMPR was added to Uptake buffer and Basal uptake measurement buffer at the final concentration of 10 μM. In the case of measurement of inhibitory activity of test compounds, test compounds were dissolved in dimethyl sulfoxide, and then appropriately diluted with Uptake buffer as to Measurement buffers. After removing culture medium of human CNT2 transiently expressing cells, Pretreatment buffer (Basal uptake measurement buffer without adenosine and glucose) was added to wells at 500 μL/well and incubated at 37° C. for 10 minutes. After repeating the same step again, Pretreatment buffer was removed and Measurement buffers and Basal uptake measurement buffer were added at 300 μL/well and incubated at 37° C. After incubation for 30 minutes, Measurement buffers and Basal uptake measurement buffer were removed, and the cells were washed with Washing buffer (Basal uptake measurement buffer with non-radioisotope labeled adenosine at 10 μM) at 500 μL/well twice. The cells were solubilized with 0.5 mol/L sodium hydroxide at 200 μL/well, and the cell lysates were transferred into glass vials at 100 μL. After mixing with 5 mL of ACS-II (GE Healthcare Bioscience), radioactivity was measured by means of scintillation counter (Aloka). One hundred % was set to the difference between the uptake in the control group and the basal uptake, and the uptake of adenosine at each test compound concentration was calculated. The test compound concentration inhibiting 50% uptake of adenosine (IC50 value) was calculated using regression line. […] The IC50 value was expressed as A; 1˜10 nM, B; 10˜100 nM or not less than 100 nM;

In the case of `N#Cc1c(NCc2ccc(-c3ccccc3)cc2)n(C2O[C@H](CO)[C@@H](O)[C@H]2O)c2ncnc(N)c12` (stereo partly drawn) [Comparative compound, reference compound], in data set [1], the “residual ratio of the compound (%)” value was determined as 45.0%.
In the case of `C[C@@]1(O)[C@H](O)[C@@H](CO)O[C@H]1n1c(NCc2ccc(-c3ccccc3)cc2)c(C#N)c2c(N)ncnc21` [Compound (1), 4-Amino-6-[(biphenyl-4-ylmethyl)-amino]-7-(3,4-dihydroxy-5-hydroxymethyl-3-methyl-tetrahydro-furan-2-yl)-7H-pyrrolo[2,3-d]pyrimidine-5-carbonitrile], in the data set on absorption of adenosine, the ED50 (commonly the dose at which the effect has come halfway, by size or by number of responders) is 1.3 mg/kg and the “ED50 value (in words)” value is reported as “high ED50 value”. Also, the IC50 – broadly, the concentration needed to halve the response being measured – against human CNT2 was ≥ 100 nM. Also, in data set [1], the “residual ratio of the compound (%)” value was determined as 85.0%. Moreover, the “Stability in pH3 solution (in words)” value in data set [1] (pH3 solution, versus comparative compound) was “better than that of comparative compound”.
In the case of `CCOC(=O)CCCCOc1cc(CNc2c(C#N)c3c(N)ncnc3n2C2O[C@H](CO)[C@@H](O)[C@@]2(C)O)ccc1-c1ccccc1` (stereo partly drawn) [Compound (2), 5-(4-{[4-Amino-5-cyano-7-(3,4-dihydroxy-5-hydroxymethyl-3-methyl-tetrahydrofuran-2-yl)-7H-pyrrolo[2,3-d]pyrimidin-6-ylamino]-methyl}-biphenyl-2-yloxy)-pentanoic acid ethyl ester], in the data set with absorption of adenosine, the ED50 stood at 1.4 mg/kg and the “ED50 value (in words)” value was “high ED50 value”. Also, at human CNT2, the IC50 was 10 to 100 nM.
The corresponding values for `C[C@]1(O)C(n2c(NCc3ccc(-c4ccccc4)c(OCCCCCl)c3)c(C#N)c3c(N)ncnc32)O[C@H](CO)[C@H]1O` (stereo partly drawn) [Compound (3), 4-Amino-6-{[2-(4-chloro-butoxy)-biphenyl-4-ylmethyl]-amino}-7-(3,4-dihydroxy-5-hydroxymethyl-3-methyl-tetrahydro-furan-2-yl)-7H-pyrrolo[2,3-d]pyrimidine-5-carbonitrile] are 1.1 mg/kg, “high ED50 value” and 10 to 100 nM.
Take `C[C@]1(O)C(n2c(NCc3ccc(-c4ccccc4)c(OCCCCN4CCOCC4)c3)c(C#N)c3c(N)ncnc32)O[C@H](CO)[C@H]1O` (stereo partly drawn) [Compound (4), 4-Amino-7-(3,4-dihydroxy-5-hydroxymethyl-3-methyl-tetrahydro-furan-2-yl)-6-{[2-(4-morpholin-4-yl-butoxy)-biphenyl-4-ylmethyl]-amino}-7H-pyrrolo[2,3-d]pyrimidine-5-carbonitrile]: in the data set on absorption of adenosine, the ED50 was 0.51 mg/kg and the “ED50 value (in words)” value is “high ED50 value”. At human CNT2, this compound gave an IC50 of 10 to 100 nM.
Turning to `CC(C)(C)[Si](C)(C)OCCCCOc1cc(CNc2c(C#N)c3c(N)ncnc3n2C2O[C@H](CO)[C@@H](O)[C@@]2(C)O)ccc1-c1ccccc1` (stereo partly drawn) [Compound (5), 4-Amino-6-({2-[4-(tert-butyl-dimethyl-silanyloxy)-butoxy]-biphenyl-4-ylmeth-yl}-amino)-7-(3,4-dihydroxy-5-hydroxymethyl-3-methyl-tetrahydro-furan-2-yl)-7H-pyrrolo[2,3-d]pyrimidine-5-carbonitrile], the IC50 against human CNT2 was ≥ 100 nM.
Same read-out and setting: under `C[C@]1(O)C(n2c(NCc3ccc(-c4ccccc4)c(OCCCCN4CCCCC4)c3)c(C#N)c3c(N)ncnc32)O[C@H](CO)[C@H]1O` (stereo partly drawn) [Compound (6), 4-Amino-7-(3,4-dihydroxy-5-hydroxymethyl-3-methyl-tetrahydro-furan-2-yl)-6-{[2-(4-piperidin-1-yl-butoxy)-biphenyl-4-ylmethyl]-amino}-7H-pyrrolo[2,3-d]pyrimidine-5-carbonitrile] stands 10 to 100 nM.
For `CN(C)C(=O)CCCCOc1cc(CNc2c(C#N)c3c(N)ncnc3n2C2O[C@H](CO)[C@@H](O)[C@@]2(C)O)ccc1-c1ccccc1` (stereo partly drawn) [Compound (7), 5-(4-{[4-Amino-5-cyano-7-(3,4-dihydroxy-5-hydroxymethyl-3-methyltetrahydrofuran-2-yl)-7H-pyrrolo[2,3-d]pyrimidin-6-ylamino]-methyl}-biphenyl-2-yloxy)-pentanoic acid dimethylamide], in the data set with absorption of adenosine, the 50% effective dose (ED50) worked out at 3 mg/kg and the “ED50 value (in words)” value was “high ED50 value”. At human CNT2, this compound yielded an IC50 of 1 to 10 nM.
Consider `C[C@]1(O)C(n2c(NCc3ccc(-c4ccccc4)c(OCCCCO)c3)c(C#N)c3c(N)ncnc32)O[C@H](CO)[C@H]1O` (stereo partly drawn) [Compound (8), 4-Amino-7-(3,4-dihydroxy-5-hydroxymethyl-3-methyl-tetrahydro-furan-2-yl)-6-{[2-(4-hydroxy-butoxy)-biphenyl-4-ylmethyl]-amino}-7H-pyrrolo[2,3-d]pyrimidine-5-carbonitrile], for which, in the data set on absorption of adenosine, the ED50 is 0.78 mg/kg and the “ED50 value (in words)” value is listed as “high ED50 value”. At human CNT2, this compound registered an IC50 of 1 to 10 nM.
For the compound `CCOC(=O)CCCCOc1cc(CNc2c(C#N)c3c(O)ncnc3n2C2O[C@H](CO)[C@@H](O)[C@@]2(C)O)ccc1-c1ccccc1` (stereo partly drawn) [Compound (9), 5-(4-{[5-Cyano-7-(3,4-dihydroxy-5-hydroxymethyl-3-methyltetrahydro-furan-2-yl)-4-hydroxy-7H-pyrrolo[2,3-d]pyrimidin-6-ylamino]methyl}-biphenyl-2-yloxy)-pentanoic acid ethyl ester], the IC50 at human CNT2 was ≥ 100 nM.
